The results in this text go back to patent US9340590B2 (priority 2011, dated 2016).

Assay in all cases: cell-based
One assay deals with hNav1.5 (Homo sapiens, UniProt Q14524). The conditions noted are these: IonWorks Quattro, read-out: IWQ Use Nav1.5.
Another assay has as its target hNav1.7 (Homo sapiens, UniProt Q15858). The assay is classed as cell-based. To be noted: IonWorks Quattro, read-out: IWQ Use Nav1.7.
In the next assay the target is hNav1.3 (Homo sapiens, UniProt Q9NY46). To be noted: IonWorks Quattro, read-out: IWQ Use Nav1.3. In general terms: Patch clamp records ionic current or voltage across a cell membrane.
Sequence of hNav1.3 (Q9NY46 whole entry, looked up): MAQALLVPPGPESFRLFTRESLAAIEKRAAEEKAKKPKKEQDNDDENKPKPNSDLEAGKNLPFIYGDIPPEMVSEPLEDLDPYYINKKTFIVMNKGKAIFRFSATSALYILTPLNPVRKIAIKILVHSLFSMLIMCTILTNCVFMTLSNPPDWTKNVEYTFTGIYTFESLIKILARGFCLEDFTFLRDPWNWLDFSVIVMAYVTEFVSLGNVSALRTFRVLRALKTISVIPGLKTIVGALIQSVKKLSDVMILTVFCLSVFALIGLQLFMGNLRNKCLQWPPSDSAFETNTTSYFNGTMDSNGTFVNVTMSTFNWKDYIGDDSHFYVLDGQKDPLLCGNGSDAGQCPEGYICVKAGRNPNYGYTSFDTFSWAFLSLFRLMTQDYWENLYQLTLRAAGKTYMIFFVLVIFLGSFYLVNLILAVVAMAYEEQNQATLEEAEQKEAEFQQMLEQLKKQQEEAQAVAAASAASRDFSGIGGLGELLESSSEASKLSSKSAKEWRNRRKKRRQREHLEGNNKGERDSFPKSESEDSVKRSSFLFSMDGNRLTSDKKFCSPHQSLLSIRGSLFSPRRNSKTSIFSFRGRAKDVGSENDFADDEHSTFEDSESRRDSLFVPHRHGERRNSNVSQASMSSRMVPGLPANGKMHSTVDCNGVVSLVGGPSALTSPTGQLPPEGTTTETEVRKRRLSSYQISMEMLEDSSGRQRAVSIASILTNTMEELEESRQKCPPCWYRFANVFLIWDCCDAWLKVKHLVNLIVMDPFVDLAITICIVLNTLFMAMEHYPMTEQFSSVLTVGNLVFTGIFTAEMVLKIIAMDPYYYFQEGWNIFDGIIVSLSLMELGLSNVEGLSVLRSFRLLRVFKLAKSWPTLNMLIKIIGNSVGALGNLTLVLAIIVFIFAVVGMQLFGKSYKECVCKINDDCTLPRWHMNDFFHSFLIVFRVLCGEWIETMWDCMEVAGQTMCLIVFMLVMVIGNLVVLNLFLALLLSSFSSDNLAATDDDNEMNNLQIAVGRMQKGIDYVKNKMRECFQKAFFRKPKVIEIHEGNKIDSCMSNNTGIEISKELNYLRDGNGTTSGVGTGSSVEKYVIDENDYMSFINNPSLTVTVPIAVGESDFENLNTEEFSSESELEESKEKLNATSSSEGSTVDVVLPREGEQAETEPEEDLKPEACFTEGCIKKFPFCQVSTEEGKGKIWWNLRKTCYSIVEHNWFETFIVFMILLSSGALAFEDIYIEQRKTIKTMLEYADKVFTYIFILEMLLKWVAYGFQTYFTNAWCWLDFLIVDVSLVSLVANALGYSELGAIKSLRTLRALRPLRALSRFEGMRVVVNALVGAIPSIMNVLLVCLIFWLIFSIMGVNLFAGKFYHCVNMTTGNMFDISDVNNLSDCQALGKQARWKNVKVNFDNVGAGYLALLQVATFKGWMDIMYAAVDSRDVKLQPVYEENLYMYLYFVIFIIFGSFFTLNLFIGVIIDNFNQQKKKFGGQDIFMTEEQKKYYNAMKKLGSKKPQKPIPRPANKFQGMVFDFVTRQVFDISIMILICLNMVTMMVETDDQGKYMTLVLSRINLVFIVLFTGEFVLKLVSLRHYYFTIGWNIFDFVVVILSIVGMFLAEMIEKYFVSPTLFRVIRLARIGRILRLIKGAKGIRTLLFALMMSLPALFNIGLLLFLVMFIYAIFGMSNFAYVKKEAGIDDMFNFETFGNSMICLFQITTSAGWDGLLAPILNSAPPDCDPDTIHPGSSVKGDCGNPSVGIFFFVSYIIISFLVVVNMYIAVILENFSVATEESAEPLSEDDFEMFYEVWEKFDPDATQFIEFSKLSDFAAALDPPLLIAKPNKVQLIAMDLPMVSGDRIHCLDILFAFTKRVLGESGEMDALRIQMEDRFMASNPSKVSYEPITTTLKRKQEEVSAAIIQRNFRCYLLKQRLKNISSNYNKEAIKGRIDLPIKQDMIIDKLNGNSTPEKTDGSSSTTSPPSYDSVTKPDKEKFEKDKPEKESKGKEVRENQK

Like-named read-outs stand apart in the source and are kept apart here. Positions of bridges follow the written chain, without caps; N, C: chain ends. Residues, ends and D or L forms follow the SMILES beside them.

Sequence of hNav1.5 (Q14524 whole entry, looked up): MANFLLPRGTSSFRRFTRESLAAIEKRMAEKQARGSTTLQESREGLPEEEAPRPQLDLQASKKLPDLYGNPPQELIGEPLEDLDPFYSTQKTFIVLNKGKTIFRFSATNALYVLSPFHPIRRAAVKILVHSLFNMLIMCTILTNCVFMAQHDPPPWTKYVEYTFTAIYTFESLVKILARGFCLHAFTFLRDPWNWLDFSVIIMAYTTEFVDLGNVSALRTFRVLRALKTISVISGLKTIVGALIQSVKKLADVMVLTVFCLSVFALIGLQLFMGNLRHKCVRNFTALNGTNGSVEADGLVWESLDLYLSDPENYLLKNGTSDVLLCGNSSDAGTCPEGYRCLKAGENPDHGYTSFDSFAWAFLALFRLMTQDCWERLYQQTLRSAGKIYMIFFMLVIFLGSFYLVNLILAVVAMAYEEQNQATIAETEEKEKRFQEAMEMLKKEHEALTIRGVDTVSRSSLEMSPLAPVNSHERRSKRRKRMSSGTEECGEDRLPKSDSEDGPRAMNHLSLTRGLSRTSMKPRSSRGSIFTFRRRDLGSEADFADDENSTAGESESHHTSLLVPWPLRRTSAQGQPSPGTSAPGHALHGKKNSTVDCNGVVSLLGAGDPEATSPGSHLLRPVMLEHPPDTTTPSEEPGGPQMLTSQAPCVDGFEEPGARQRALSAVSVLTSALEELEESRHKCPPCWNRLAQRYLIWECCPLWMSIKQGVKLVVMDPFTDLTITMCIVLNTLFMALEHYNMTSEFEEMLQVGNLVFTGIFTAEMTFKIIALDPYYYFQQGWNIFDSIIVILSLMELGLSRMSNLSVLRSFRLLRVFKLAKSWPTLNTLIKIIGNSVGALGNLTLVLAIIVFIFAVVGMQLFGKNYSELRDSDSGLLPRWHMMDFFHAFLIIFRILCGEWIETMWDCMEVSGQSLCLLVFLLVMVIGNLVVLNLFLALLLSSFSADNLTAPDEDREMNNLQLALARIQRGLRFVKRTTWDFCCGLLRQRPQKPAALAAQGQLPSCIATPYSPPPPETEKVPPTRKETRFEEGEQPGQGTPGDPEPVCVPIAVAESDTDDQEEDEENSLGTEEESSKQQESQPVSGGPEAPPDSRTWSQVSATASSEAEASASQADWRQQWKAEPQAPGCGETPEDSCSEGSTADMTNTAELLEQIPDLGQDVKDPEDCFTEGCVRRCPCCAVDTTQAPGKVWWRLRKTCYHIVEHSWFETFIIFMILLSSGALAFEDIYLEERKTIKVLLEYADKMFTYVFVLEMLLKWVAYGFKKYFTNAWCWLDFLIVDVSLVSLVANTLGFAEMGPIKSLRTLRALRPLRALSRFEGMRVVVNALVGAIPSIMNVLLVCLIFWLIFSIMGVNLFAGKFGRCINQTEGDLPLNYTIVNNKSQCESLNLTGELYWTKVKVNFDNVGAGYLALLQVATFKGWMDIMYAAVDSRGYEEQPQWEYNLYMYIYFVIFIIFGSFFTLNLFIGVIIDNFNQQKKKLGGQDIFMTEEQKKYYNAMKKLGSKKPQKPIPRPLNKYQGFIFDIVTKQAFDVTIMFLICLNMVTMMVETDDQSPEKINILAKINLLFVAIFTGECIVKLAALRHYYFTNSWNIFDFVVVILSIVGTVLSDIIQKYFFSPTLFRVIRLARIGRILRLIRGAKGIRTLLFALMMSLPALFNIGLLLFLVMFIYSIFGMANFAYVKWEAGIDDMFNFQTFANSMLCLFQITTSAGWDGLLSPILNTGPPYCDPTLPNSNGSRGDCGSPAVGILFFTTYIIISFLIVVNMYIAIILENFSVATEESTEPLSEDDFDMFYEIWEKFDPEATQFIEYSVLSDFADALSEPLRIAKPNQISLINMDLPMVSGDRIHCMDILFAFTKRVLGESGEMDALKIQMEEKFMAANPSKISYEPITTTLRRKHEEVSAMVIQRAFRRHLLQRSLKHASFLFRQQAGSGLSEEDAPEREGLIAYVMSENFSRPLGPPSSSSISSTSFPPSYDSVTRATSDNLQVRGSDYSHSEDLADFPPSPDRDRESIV

`CC[C@H](C)[C@@H]1NC(=O)[C@@H]2CSSC[C@@H]3NC(=O)[C@H](C(C)C)NC(=O)[C@H](CC(C)C)NC(=O)[C@H](CC(N)=O)NC(=O)[C@@H]4CCCN4C(=O)[C@H](CCCNC(=N)N)NC(=O)[C@H](CSSC[C@H](NC(=O)[C@@H](N)CC(=O)O)C(=O)N[C@@H](CC(C)C)C(=O)NCC(=O)N[C@@H](Cc4ccccc4)C(=O)N[C@@H](CCSC)C(=O)N[C@@H](CCCNC(=N)N)C(=O)N[C@@H](CCCCN)C(=O)N2)NC(=O)[C@H](CSSC[C@@H](C(=O)N[C@@H](CCCCN)C(=O)N[C@@H](Cc2ccc(O)cc2)C(=O)N[C@H](C(=O)N[C@@H](Cc2ccccc2)C(N)=O)[C@@H](C)O)NC(=O)[C@H](Cc2c[nH]c4ccccc24)NC(=O)[C@H](CCCCN)NC(=O)[C@H](Cc2c[nH]cn2)NC(=O)[C@H]([C@@H](C)O)NC(=O)[C@H](CCCNC(=N)N)NC(=O)[C@H](CO)NC3=O)NC(=O)[C@H](CCCCN)NC(=O)[C@H](CC(=O)O)NC(=O)[C@H](CC(N)=O)NC(=O)[C@H](CC(=O)O)NC(=O)[C@@H]2CCCN2C1=O` [compound 396] (H-DCLGFMRKCIPDNDKCCRPNLVCSRTHKWCKYTF-NH2; disulfide 2-17, 9-23, 16-30): the IC50 was found to be 3780 nM at hNav1.5 (Table 26, use, […]); 20 nM on hNav1.7 (Table 26, use, […]); 40 nM on hNav1.3 (Table 26, use, […]).
On to `CSCC[C@@H]1NC(=O)[C@H](Cc2ccccc2)NC(=O)CNC(=O)[C@H](CC(C)C)NC(=O)[C@@H](NC(=O)[C@@H](N)CC(=O)O)CSSC[C@@H]2NC(=O)[C@@H]3CSSC[C@@H](C(=O)N[C@@H](CCCCN)C(=O)N[C@@H](Cc4ccc(O)cc4)C(=O)N[C@H](C(=O)N[C@@H](Cc4ccccc4)C(N)=O)C(C)C)NC(=O)[C@H](Cc4c[nH]c5ccccc45)NC(=O)[C@H](CCCCN)NC(=O)[C@H](Cc4c[nH]cn4)NC(=O)[C@H]([C@@H](C)O)NC(=O)[C@H](CCCNC(=N)N)NC(=O)[C@H](CO)NC(=O)[C@H](CSSC[C@H](NC(=O)[C@H](CCCCN)NC(=O)[C@H](CCCNC(=N)N)NC1=O)C(=O)N[C@@H](Cc1ccc(C(=O)O)cc1)C(=O)N1CCC[C@H]1C(=O)N[C@@H](CC(=O)O)C(=O)N[C@@H](CC(N)=O)C(=O)N[C@@H](CC(=O)O)C(=O)N[C@@H](CCCCN)C(=O)N3)NC(=O)[C@H](C(C)C)NC(=O)[C@H](CC(C)C)NC(=O)[C@H](CC(N)=O)NC(=O)[C@@H]1CCCN1C(=O)[C@H](CCCNC(=N)N)NC2=O` [compound 310], for which the IC50 is 6870 nM on hNav1.5 (Use), 280 nM on hNav1.7 (Use) and 230 nM at hNav1.3 (Use).
As to `CC(C)C[C@@H]1NC(=O)[C@@H](NC(=O)[C@@H](N)CC(=O)O)CSSC[C@@H]2NC(=O)[C@@H]3CSSC[C@@H](C(=O)N[C@@H](CCCCN)C(=O)N[C@@H](Cc4ccc(O)cc4)C(=O)N[C@H](C(=O)N[C@@H](Cc4ccccc4)C(N)=O)C(C)C)NC(=O)[C@H](Cc4c[nH]c5ccccc45)NC(=O)[C@H](CCCCN)NC(=O)[C@H](Cc4c[nH]cn4)NC(=O)[C@H]([C@@H](C)O)NC(=O)[C@H](CCCNC(=N)N)NC(=O)[C@H](CO)NC(=O)[C@H](CSSC[C@H](NC(=O)[C@H](CCCCN)NC(=O)[C@H](CCCNC(=N)N)NC(=O)[C@H](Cc4ccccc4)NC(=O)CNC(=O)CNC1=O)C(=O)N[C@@H](CCC(=O)O)C(=O)N1CCC[C@H]1C(=O)N[C@@H](CC(=O)O)C(=O)N[C@@H](CC(N)=O)C(=O)N[C@@H](CC(=O)O)C(=O)N[C@@H](CCCCN)C(=O)N3)NC(=O)[C@H](C(C)C)NC(=O)[C@H](CC(C)C)NC(=O)[C@H](CC(N)=O)NC(=O)[C@@H]1CCCN1C(=O)[C@H](CCCNC(=N)N)NC2=O` [compound 754] (H-DCLGGFRKCEPDNDKCCRPNLVCSRTHKWCKYVF-NH2; disulfide 2-17, 9-23, 16-30), the IC50 on hNav1.5 (use-dependent block, hNav1.5) is 34200 nM; on hNav1.7 (use-dependent block, hNav1.7), 350 nM; on hNav1.3 (use-dependent block, hNav1.3) it was 330 nM.
